{
  "source": "patent US20230372382A1",
  "about": "“USE OF ADENOSINE DIPHOSPHATE RIBOSE FOR ADJUVANT THERAPY WITH RADIATION AND/OR ANTI-CANCER TREATMENT” (PearlsInMires Co., Ltd., priority 2021, published 2023)",
  "key": {"[1]": {"system": "Breast cancer (MDA-MB-231) cells", "assay": "Cell death by combination treatment with anti-cancer drug (MTT)", "assay_type": "cell-based", "conditions": "Homo sapiens, MDA-MB-231, 24 h", "procedure": "(§5) 3×10^3 Brain cancer (U-87MG), lung cancer (H1975), pancreatic cancer (Aspc-1), liver cancer (Hep G2), breast cancer (MDA-MB-231), and colon cancer (HCT116) cells were cultured in a 96-well plate for 24 hours under conditions of 37° C. and 5% Ca2, respectively. […] After the treatment was terminated, the cells were cultured for 24 hours under conditions of 37° C. and 5% CO2 again, 10 μl of 3-(4,5-dimethylthiazol-2-yl)-2,5-diphenyltetrazolium bromide reagent was added to each well and reacted for 1 hour. After the reaction was completed, the reagent was removed, 200 μl of dimethyl sulfoxide was added to each well, and the absorbance was measured to compare the degree of cell death.\n(§6) Then, 10 μl of 3-(4,5-dimethylthiazol-2-yl)-2,5-diphenyltetrazolium bromide reagent was added to each well and reacted for 1 hour. After the reaction was completed, the reagent was removed, 200 μl of dimethyl sulfoxide was added to each well, and the absorbance was measured to confirm cell viability."}, "[2]": {"system": "AsPC-1 cells", "assay": "ADP-ribose quantitative analysis (ELISA) in cancer cells", "assay_type": "cell-based", "conditions": "8 μM ADP-ribose, 24 hours, P<0.001", "method": "(§1) After culturing, the culture medium was removed, the cells were washed with phosphate-buffered saline, and then RIPA buffer was added and the cells were left on ice for 20 minutes. After scraping the cells, the cells were put in a centrifuge tube and centrifuged for 10 minutes at 10,000 g and 4° C. The supernatant was obtained, and 1% SDS was added, and then the reaction product was boiled at 100° C. for 5 minutes and cooled on ice. The supernatant was centrifuged again at 10,000 g and 4° C. for 10 minutes to obtain the final supernatant, and ADP-ribose was quantitatively analyzed and compared using an ELISA analysis kit (Cell Biolabs, Inc., San Diego, CA, USA).\n(§2) The medium of the cultured cells was removed, and the supernatant prepared by treatment with RIPA buffer and 1% sodium dodecyl sulfate (SDS) was used for ELISA analysis to detect and analyze ADP-ribose."}, "[3]": {"system": "U-87MG cells", "assay": "ADP-ribose quantitative analysis (ELISA) in cancer cells", "assay_type": "cell-based", "conditions": "8 μM ADP-ribose, 24 hours, P<0.001", "method": "as §1, §2"}, "[4]": {"system": "HCT116 cells", "assay": "ADP-ribose quantitative analysis (ELISA) in cancer cells", "assay_type": "cell-based", "conditions": "8 μM ADP-ribose, 24 hours, P<0.001", "method": "as §1, §2"}, "[5]": {"system": "Caki-1 cells", "assay": "ADP-ribose quantitative analysis (ELISA) in cancer cells", "assay_type": "cell-based", "conditions": "16 μM ADP-ribose, 24 hours, P<0.001", "method": "as §1, §2"}, "[6]": {"system": "H1975 cells", "assay": "ADP-ribose quantitative analysis (ELISA) in cancer cells", "assay_type": "cell-based", "conditions": "4 μM ADP-ribose, 24 hours, P<0.001", "method": "as §1, §2"}, "[7]": {"system": "Hep G2 cells", "assay": "Cancer cell death verification (MTT cell viability)", "assay_type": "cell-based", "procedure": "(§7) 3×10^3 Brain cancer (U-87MG), lung cancer (H1975), pancreatic cancer (Aspc-1), liver cancer (Hep G2), breast cancer (MDA-MB-231), colon cancer (HCT116), kidney cancer (Caki-1), gastric cancer (SNU-1) and ovarian cancer (OVCAR-3) cells were cultured in a 96-well plate under conditions of 37° C. and 5% CO2 for 24 hours, and then each cancer cell was treated with ADP-ribose at each concentration. After culturing for 24 hours under conditions of 37° C. and 5% CO2 again, 10 μl of 3-(4,5-dimethylthiazol-2-yl)-2,5-diphenyltetrazolium bromide reagent was added to each well and reacted for 1 hour. After the reaction was completed, the reagent was removed, 200 μl of dimethyl sulfoxide was added to each well, and the absorbance was measured to determine the concentration of half-lethality and maximum lethality compared to untreated cells.\n3×10^3 Hep G2 cells were cultured in a 96-well plate for 24 hours under conditions of 37° C. and 5% CO2, treated with ADP-ribose at concentrations of 0.125, 0.25, 0.5, 1, 2, 4, 8, 16, and 32 μM, respectively, and cultured again for 24 hours under conditions of 37° C. and 5% CO2. Then, 10 μl of 3-(4,5-dimethylthiazol-2-yl)-2,5-diphenyltetrazolium bromide reagent was added to each well and reacted for 1 hour. After the reaction was completed, the reagent was removed, 200 μl of dimethyl sulfoxide was added to each well, and the absorbance was measured to confirm cell viability."}, "[8]": {"system": "H1975 cells", "assay": "Cancer cell death verification (MTT cell viability)", "assay_type": "cell-based", "procedure": "as §7\n3×10^3 H1975 cells were cultured in a 96-well plate for 24 hours under conditions of 37° C. and 5% CO2, treated with ADP-ribose at concentrations of 0.125, 0.25, 0.5, 1, 2, 4, 8, 16, and 32 μM, respectively, and cultured again for 24 hours under conditions of 37° C. and 5% CO2. Then, 10 μl of 3-(4,5-dimethylthiazol-2-yl)-2,5-diphenyltetrazolium bromide reagent was added to each well and reacted for 1 hour. After the reaction was completed, the reagent was removed, 200 μl of dimethyl sulfoxide was added to each well, and the absorbance was measured to confirm cell viability."}, "[9]": {"system": "H1975 cells", "assay": "Cell death by combination treatment of ADP-ribose and radiation (MTT)", "assay_type": "cell-based", "conditions": "H1975, 2 μM ADP-ribose in combination with 2 Gy radiation, 24 hours, P<0.001; 2 Gy alone about 75%", "procedure": "3×10^3 H1975 cells were cultured in a 96-well plate for 24 hours under conditions of 37° C. and 5% Ca2, treated with 2 μM of ADP-ribose and 2 or 5 Gy dose of radiation individually or in combination, and cultured for 24 hours under conditions of 37° C. and 5% CO2 again. Then, 10 μl of 3-(4,5-dimethylthiazol-2-yl)-2,5-diphenyltetrazolium bromide reagent was added to each well and reacted for 1 hour. After the reaction was completed, the reagent was removed, 200 μl of dimethyl sulfoxide was added to each well, and the absorbance was measured to confirm cell viability."}, "[10]": {"system": "Lung cancer (H1975) cells", "assay": "Cell death by combination treatment with anti-cancer drug (MTT)", "assay_type": "cell-based", "conditions": "Homo sapiens, NCI-H1975; H1975, ADP-ribose 1.6 μM in combination with osimertinib 1 nM, 24 hours, P<0.001"}, "[11]": {"system": "Caki-1 cells", "assay": "Cancer cell death verification (MTT cell viability)", "assay_type": "cell-based", "procedure": "as §7, §6"}, "[12]": {"system": "human dermal papilla cell (HDPC)", "assay": "Toxicity in normal cells (MTT assay)", "assay_type": "cell-based", "conditions": "ADP-ribose 25, 50, 100 ul, 24, 48 and 72 hours", "method": "(§3) As normal cells, human colon fibroblast (CCD-18Co) and human dermal papilla cell (HDPC) cells were used. […] Then, the cells were divided into a total of 4 groups: ADP-ribose untreated group (Untreated), and treated groups (treated with increased concentrations of 25, 50, 100 ul). Cell viability was compared by MTT assay after 24, 48, and 72 hours of drug treatment."}, "[13]": {"system": "human colon fibroblast (CCD-18Co)", "assay": "Toxicity in normal cells (MTT assay)", "assay_type": "cell-based", "conditions": "ADP-ribose 25, 50, 100 ul, 24, 48 and 72 hours", "method": "as §3"}, "[14]": {"system": "Brain cancer (U-87MG) cells", "assay": "Cell death by combination treatment with anti-cancer drug (MTT)", "assay_type": "cell-based", "conditions": "Homo sapiens, ADP-ribose 1.6 μM in combination with bevacizumab, 24 hours, P<0.001", "procedure": "as §5\n3×10^3 Brain cancer (U-87MG) cells were cultured in a 96-well plate for 24 hours under conditions of 37° C. and 5% CO2, treated with ADP-ribose at a concentration of 1.6 μM and bevacizumab at 15 mM, individually or in combination, and cultured for 24 hours under conditions of 37° C. and 5% CO2 again. Then, 10 μl of 3-(4,5-dimethylthiazol-2-yl)-2,5-diphenyltetrazolium bromide reagent was added to each well and reacted for 1 hour. After the reaction was completed, the reagent was removed, 200 μl of dimethyl sulfoxide was added to each well, and the absorbance was measured to confirm cell viability."}, "[15]": {"system": "U-87MG cells", "assay": "Cancer cell death verification (MTT cell viability)", "assay_type": "cell-based", "procedure": "as §7\n3×10^3 U-87MG cells were cultured in a 96-well plate for 24 hours under conditions of 37° C. and 5% CO2, treated with ADP-ribose at final concentrations of 0.125, 0.25, 0.5, 1, 2, 4, 8, 16, and 32 μM, respectively, and cultured again for 24 hours under conditions of 37° C. and 5% CO2. Then, 10 μl of 3-(4,5-dimethylthiazol-2-yl)-2,5-diphenyltetrazolium bromide reagent was added to each well and reacted for 1 hour. After the reaction was completed, the reagent was removed, 200 μl of dimethyl sulfoxide was added to each well, and the absorbance was measured to confirm cell viability."}, "[16]": {"system": "Colon cancer (HCT116) cells", "assay": "Cell death by combination treatment with anti-cancer drug (MTT)", "assay_type": "cell-based", "conditions": "Homo sapiens, HCT-116; HCT116, ADP-ribose 1.6 μM/100 μl in combination with 5-FU 10 μM, 24 hours, P<0.001", "procedure": "as §5\n3×10^3 Colon cancer (HCT116) cells were cultured in a 96-well plate for 24 hours under conditions of 37° C. and 5% CO2, treated with ADP-ribose at a concentration of 1.6 μM/100 μl and 5-fluorouracil (5-FU) at 10 μM, individually or in combination, and cultured for 24 hours under conditions of 37° C. and 5% CO2 again. Then, 10 μl of 3-(4,5-dimethylthiazol-2-yl)-2,5-diphenyltetrazolium bromide reagent was added to each well and reacted for 1 hour. After the reaction was completed, the reagent was removed, 200 μl of dimethyl sulfoxide was added to each well, and the absorbance was measured to confirm cell viability."}, "[17]": {"system": "Lung cancer (H1975) cells", "assay": "Xenograft model, combination with anti-cancer drug, tumor volume", "assay_type": "in vivo, BALB/c nude mice", "method": "(§4) Brain (U-87MG), lung (H1975), pancreatic (AsPC-1), or liver (Hep G2) cells (1×10^7 cells) were inoculated into 5-week-old BALB/c nude mice on the back flank, respectively. Then, when tumors were grown to a volume of approximately 150 mm^3, the mice were divided into the control group (control), an anti-cancer drug alone treatment group, and a combination treatment group. […] The tumor size was measured every 6 days using a digital caliper, and the results of changes in tumor volume were compared by the group.\nLung cancer (H1975) cells (1×10^7) were inoculated into 5-week-old BALB/c nude mice on the back flank, and the mice were divided into three groups: the control group (Control), single oral administration of 1 mg/kg of osimertinib, and combination administration of osimertinib+10 mg/kg of ADP-ribose. When the tumors were grown to a volume of approximately 150 mm^3, osimertinib was administered orally twice a week, and ADP-ribose at 10 mg/kg was injected subcutaneously 3 times a week. The tumor size was measured using a digital caliper, and the results of changes in tumor volume were compared by the group."}, "[18]": {"system": "Brain cancer (U-87MG) cells", "assay": "Xenograft model, combination with anti-cancer drug, tumor volume", "assay_type": "in vivo, BALB/c nude mice", "conditions": "U-87MG xenograft", "method": "as §4\nBrain cancer (U-87MG) cells (1×10^7) were inoculated into 5-week-old BALB/c nude mice on the back flank, and the mice were divided into three groups: the control group (Control), single intraperitoneal administration of 25 mg/kg of Avastin (ingredient name: bevacizumab), and combination administration of Avastin+10 mg/kg of ADP-ribose. When the tumors were grown to a volume of approximately 150 mm^3, Avastin was administered intraperitoneally twice a week, and ADP-ribose at 10 mg/kg was injected subcutaneously 3 times a week. The tumor size was measured using a digital caliper, and the results of changes in tumor volume were compared by the group."}, "[19]": {"system": "HCT116 cells", "assay": "Cancer cell death verification (MTT cell viability)", "assay_type": "cell-based", "procedure": "as §7\n3×10^3 HCT116 cells were cultured in a 96-well plate for 24 hours under conditions of 37° C. and 5% Ca2, treated with ADP-ribose at concentrations of 0.125, 0.25, 0.5, 1, 2, 4, 8, 16, and 32 μM, respectively, and cultured again for 24 hours under conditions of 37° C. and 5% CO2. Then, 10 μl of 3-(4,5-dimethylthiazol-2-yl)-2,5-diphenyltetrazolium bromide reagent was added to each well and reacted for 1 hour. After the reaction was completed, the reagent was removed, 200 μl of dimethyl sulfoxide was added to each well, and the absorbance was measured to confirm cell viability."}, "[20]": {"conditions": "ADP-ribose 10 mg/kg s.c. in combination with osimertinib 1 mg/kg, P<0.001"}, "[21]": {"conditions": "ADP-ribose 10 mg/kg s.c. in combination with Avastin 25 mg/kg, P<0.001"}},
  "data": [
    {"smiles": "Nc1ncnc2c1ncn2[C@@H]1O[C@H](COP(=O)(O)OP(=O)(O)OC[C@H]2O[C@@H](O)C(O)C2O)C(O)C1O", "note": "(stereo partly drawn) [ADP-ribose, adenosine diphosphate ribose]", "values": [
      {"measurement": "viability at 3.2 µM", "setting": "[1]", "result": "~20", "unit": "%"},
      {"measurement": "amount of ADP-ribose in cells compared to the control group", "setting": "[2]", "result": "remarkably increased significantly"},
      {"measurement": "amount of ADP-ribose in cells compared to the control group", "setting": "[3]", "result": "remarkably increased significantly"},
      {"measurement": "amount of ADP-ribose in cells compared to the control group", "setting": "[4]", "result": "remarkably increased significantly"},
      {"measurement": "amount of ADP-ribose in cells compared to the control group", "setting": "[5]", "result": "remarkably increased significantly"},
      {"measurement": "amount of ADP-ribose in cells compared to the control group", "setting": "[6]", "result": "remarkably increased significantly"},
      {"measurement": "maximum lethal dose (concentration at which almost all cells were killed)", "setting": "[7]; Hep G2, 24 hours, MTT", "result": 32, "unit": "µM"},
      {"measurement": "cancer cell growth under a microscope", "setting": "[7]; Hep G2, ADP-ribose treated vs control, FIG. 5A", "result": "inhibited from growing and killed"},
      {"measurement": "IC50", "setting": "[7]; Homo sapiens, HepG2, 24 h, read-out: half-lethal dose (concentration at which about half of the cells were killed)", "result": "~4", "unit": "µM"},
      {"measurement": "maximum lethal dose (concentration at which almost all cells were killed)", "setting": "[8]; H1975, 24 hours, MTT", "result": 32, "unit": "µM"},
      {"measurement": "cancer cell growth under a microscope", "setting": "[8]; H1975, ADP-ribose treated vs control, FIG. 3A", "result": "inhibited from growing and killed"},
      {"measurement": "IC50", "setting": "[8]; Homo sapiens, NCI-H1975, 24 h, read-out: half-lethal dose (concentration at which about half of the cells were killed)", "result": "~2", "unit": "µM"},
      {"measurement": "survival rate of cancer cells", "setting": "[9]", "result": "about 8%"},
      {"measurement": "viability at 1.6 µM", "setting": "[10]", "result": "~0.9", "unit": "%"},
      {"measurement": "maximum lethal dose (concentration at which almost all cells were killed)", "setting": "[11]; Caki-1, 24 hours, MTT", "result": 32, "unit": "µM"},
      {"measurement": "cancer cell growth under a microscope", "setting": "[11]; Caki-1, ADP-ribose treated vs control, FIG. 8A", "result": "inhibited from growing and killed"},
      {"measurement": "IC50", "setting": "[11]; Homo sapiens, CAKI-1, 24 h, read-out: half-lethal dose (concentration at which about half of the cells were killed)", "result": "~16", "unit": "µM"},
      {"measurement": "toxicity to normal cells (cell viability, MTT assay)", "setting": "[12]", "result": "no toxicity was observed"},
      {"measurement": "toxicity to normal cells (cell viability, MTT assay)", "setting": "[13]", "result": "no toxicity was observed"},
      {"measurement": "viability at 1.6 µM", "setting": "[14]", "result": "~18", "unit": "%"},
      {"measurement": "IC50", "setting": "[15]; Homo sapiens, U-87 MG, 24 h, read-out: half-lethal dose (concentration at which about half of the cells were killed)", "result": "~8", "unit": "µM"},
      {"measurement": "maximum lethal dose (concentration at which almost all cells were killed)", "setting": "[15]; U-87MG, 24 hours, MTT", "result": 32, "unit": "µM"},
      {"measurement": "cancer cell growth under a microscope", "setting": "[15]; U-87MG, ADP-ribose treated vs control, FIG. 2A", "result": "inhibited from growing and killed"},
      {"measurement": "viability at 1.6 µM", "setting": "[16]", "result": "~12", "unit": "%"},
      {"measurement": "reduction of tumor volume compared to the control group", "setting": "[17]; [20]", "result": "about 81%"},
      {"measurement": "reduction of tumor volume compared to the group treated with osimertinib alone", "setting": "[17]; [20]", "result": "about 77%"},
      {"measurement": "final tumor volume", "setting": "[17]; ADP-ribose 10 mg/kg subcutaneous 3 times a week in combination with osimertinib 1 mg/kg, control about 2265.5", "result": "about 424.7 mm^3"},
      {"measurement": "reduction of tumor volume compared to the control group", "setting": "[18]; [21]", "result": "about 87%"},
      {"measurement": "reduction of tumor volume compared to the group treated with Avastin alone", "setting": "[18]; [21]", "result": "about 79%"},
      {"measurement": "final tumor volume", "setting": "[18]; ADP-ribose 10 mg/kg subcutaneous 3 times a week in combination with Avastin 25 mg/kg, control about 2527.1", "result": "about 334.5 mm^3"},
      {"measurement": "maximum lethal dose (concentration at which almost all cells were killed)", "setting": "[19]; HCT116, 24 hours, MTT", "result": 32, "unit": "µM"},
      {"measurement": "cancer cell growth under a microscope", "setting": "[19]; HCT116, ADP-ribose treated vs control, FIG. 7A", "result": "inhibited from growing and killed"},
      {"measurement": "IC50", "setting": "[19]; Homo sapiens, HCT-116, 24 h, read-out: half-lethal dose (concentration at which about half of the cells were killed)", "result": "~8", "unit": "µM"}
    ]}
  ]
}
